In patent US8415469B2, “Compounds and methods for kinase modulation, and indications therefor” (Plexxikon Inc., priority 2005, dated 2013) one finds IC50 data, which are given here for 34 compounds.

By IC50 is commonly meant the concentration at which inhibition is half-maximal.

What all share (assay type): biochemical
The target in one test is T1, Jnk3 (Homo sapiens, UniProt P53779).
T1 construct: purchased Upstate Biotechnology
The experiment in a line: AlphaScreen kinase assay, Jnk3. The note with it: read-out: IC50, activity toward kinase Jnk3. (Bead proximity is the source of the signal in Alpha formats.)

The target in a further test is T2, Kit (Homo sapiens, UniProt P10721).
T2 construct: P1332.N6 BI PTP KIT M552-K948-X COD; His6 (N); made in house; host or cells: E. coli (PTP1B co-expressed)
The experiment in a line: AlphaScreen kinase assay, Kit. The note with it: read-out: IC50, activity toward kinase Kit.

The next test addresses T3, Zap70 (Homo sapiens, UniProt P43403).
T3 construct: P1868.pFastBac1 ZAP70 D327-G606 HIS, WT; His7 (HHHHHHH) (C); made in house
T3 sequence (P43403 with tags, fused parts or gaps): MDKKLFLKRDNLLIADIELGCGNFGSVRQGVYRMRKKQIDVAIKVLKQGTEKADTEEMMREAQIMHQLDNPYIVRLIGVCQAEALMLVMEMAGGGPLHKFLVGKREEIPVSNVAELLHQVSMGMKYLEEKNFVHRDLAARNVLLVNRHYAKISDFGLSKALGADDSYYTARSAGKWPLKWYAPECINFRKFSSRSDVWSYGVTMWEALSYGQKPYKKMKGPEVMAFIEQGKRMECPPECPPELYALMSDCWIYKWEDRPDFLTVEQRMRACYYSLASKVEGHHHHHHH
Put plainly: AlphaScreen kinase assay, Zap70. The note with it: read-out: IC50, activity toward kinase Zap70. From the text: AlphaScreen assay was used to screen additional kinases. The assay is similarly dependent on the phosphorylation of a peptide substrate. In this assay, an antibody that recognizes phosphorylated substrate is bound to an acceptor bead. The peptide substrate is attached to biotin, which binds to a donor head that contains streptavidin. Thus phosphorylated substrate is bound by antibody and streptavidin, bringing the donor and acceptor heads into close proximity when kinase is not inhibited. The donor produces singlet oxygen which results in emission from the acceptor when they are in close proximity. Conversely, when kinase is inhibited, the donor and acceptor beads are not associated and the emission from the acceptor is reduced.
AlphaScreen assays were done using compounds dissolved in DMSO to a concentration of 20 mM. The compounds were diluted accordingly to the desired final concentrations in each sample well, using 1:3 serial dilution for a total of 8 concentration points.

The next test has as its target T4, Ret (Homo sapiens, UniProt P07949).
T4 construct: P1378.pET-SF BI-PTP RET H661-R1012 HIS; made in house
T4 sequence (P07949 with tags, fused parts or gaps): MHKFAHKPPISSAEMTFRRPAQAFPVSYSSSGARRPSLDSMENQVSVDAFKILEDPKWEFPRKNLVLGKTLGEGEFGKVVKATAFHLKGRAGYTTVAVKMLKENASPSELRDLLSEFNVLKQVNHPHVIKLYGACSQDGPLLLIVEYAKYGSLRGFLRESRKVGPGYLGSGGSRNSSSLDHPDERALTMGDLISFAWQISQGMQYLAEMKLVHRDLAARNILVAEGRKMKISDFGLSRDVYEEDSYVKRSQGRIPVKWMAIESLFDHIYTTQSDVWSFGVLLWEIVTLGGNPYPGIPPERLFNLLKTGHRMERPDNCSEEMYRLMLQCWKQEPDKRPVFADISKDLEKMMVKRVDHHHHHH
The experiment in a line: AlphaScreen kinase assay, Ret. The note with it: read-out: IC50, activity toward kinase Ret.

The target in the next test is MAP4K4 (Homo sapiens, UniProt O95819). The experiment in a line: AlphaScreen kinase assay, MAP4K4. The note with it: read-out: IC50, activity toward kinase MAP4K4.
The next test addresses T5, Kdr (Homo sapiens, UniProt P35968).
T5 construct: purchased Invitrogen (assay run by Invitrogen)
Put plainly: Z'-Lyte FRET kinase assay (Invitrogen), Kdr. The note with it: read-out: IC50, activity toward kinase Kdr.

A further test has as its target T6, Stk6 (Homo sapiens, UniProt O14965).
T6 construct: purchased Invitrogen (Carlsbad, Calif.), screening service
T6 sequence (O14965 1-403): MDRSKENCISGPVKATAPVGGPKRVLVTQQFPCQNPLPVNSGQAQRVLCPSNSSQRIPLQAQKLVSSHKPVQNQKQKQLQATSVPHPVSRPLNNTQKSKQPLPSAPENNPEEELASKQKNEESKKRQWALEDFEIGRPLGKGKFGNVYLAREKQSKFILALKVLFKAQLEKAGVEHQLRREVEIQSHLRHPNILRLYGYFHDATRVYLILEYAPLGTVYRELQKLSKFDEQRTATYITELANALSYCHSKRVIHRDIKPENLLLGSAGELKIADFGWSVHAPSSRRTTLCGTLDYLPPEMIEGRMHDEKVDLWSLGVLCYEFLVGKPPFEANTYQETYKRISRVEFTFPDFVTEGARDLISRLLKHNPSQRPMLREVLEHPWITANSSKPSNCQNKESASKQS
Put plainly: Z'-Lyte FRET kinase assay (Invitrogen), Stk6. The note with it: read-out: IC50, activity toward kinase Stk6.

For a further test, the target named is T7, Yes (Homo sapiens, UniProt P07947).
T7 construct: purchased Invitrogen (Carlsbad, Calif.), screening service
The experiment in a line: Z'-Lyte FRET kinase assay (Invitrogen), Yes. The note with it: read-out: IC50, activity toward kinase Yes. The procedure, abridged:
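Read-out is the coumarin-to-fluorescein emission ratio, which rises when unphosphorylated peptide is cleaved by the development protease. Reactions contain serially diluted compound, 2 μM peptide and 10 μM ATP and run for 1 h at room temperature before 1 h development.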

The target in a further test is T8, Fak (Homo sapiens, UniProt Q05397).
T8 construct: P1358.pFastBacHtb FAK S411-Q686-X; His6 with pFastBacHTb leader (TEV site) (N); made in house; host or cells: Sf9 (baculovirus)
The experiment in a line: AlphaScreen kinase assay, Fak. The note with it: read-out: IC50, activity toward kinase Fak.

In another test the target is T9, B-Raf (Homo sapiens, UniProt P15056).
T9 construct: purchased Upstate Biotechnology
Put plainly: AlphaScreen kinase assay, B-Raf. The note with it: read-out: IC50, activity toward kinase B-Raf.

A further test addresses T10, B-Raf V600E (Homo sapiens, UniProt P15056, V600E).
T10 construct: P4254. pFastBacBD-CDC37 BRAF D437-K722-X, V600E; His6 with pFastBac HT leader (TEV site) (N); made in house; host or cells: Sf9 (baculovirus; chaperone CDC37 co-expressed)
Put plainly: AlphaScreen kinase assay, B-Raf V600E. The note with it: read-out: IC50, activity toward kinase B-Raf V600E.

Another test addresses T11, FGFR1 (Homo sapiens, UniProt P11362, C488A/C584S).
T11 construct: P1351.pET N6 BI-PTP FGFR A458-E765-X C488A, C584S; made in house; host or cells: E. coli (PTP1B co-expressed)
Put plainly: AlphaScreen kinase assay, FGFR1. The note with it: read-out: IC50, activity toward kinase FGFR.

T11 sequence (P11362 458-765 C488A/C584S): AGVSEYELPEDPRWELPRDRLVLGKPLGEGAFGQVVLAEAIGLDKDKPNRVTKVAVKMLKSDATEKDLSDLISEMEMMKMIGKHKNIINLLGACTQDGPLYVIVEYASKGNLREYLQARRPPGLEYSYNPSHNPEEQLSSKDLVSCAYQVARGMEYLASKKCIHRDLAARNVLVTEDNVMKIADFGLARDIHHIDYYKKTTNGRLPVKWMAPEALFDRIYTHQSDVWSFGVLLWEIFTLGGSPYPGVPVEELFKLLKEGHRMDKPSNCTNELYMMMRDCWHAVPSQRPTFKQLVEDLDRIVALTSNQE
T5 sequence (P35968 20-1356): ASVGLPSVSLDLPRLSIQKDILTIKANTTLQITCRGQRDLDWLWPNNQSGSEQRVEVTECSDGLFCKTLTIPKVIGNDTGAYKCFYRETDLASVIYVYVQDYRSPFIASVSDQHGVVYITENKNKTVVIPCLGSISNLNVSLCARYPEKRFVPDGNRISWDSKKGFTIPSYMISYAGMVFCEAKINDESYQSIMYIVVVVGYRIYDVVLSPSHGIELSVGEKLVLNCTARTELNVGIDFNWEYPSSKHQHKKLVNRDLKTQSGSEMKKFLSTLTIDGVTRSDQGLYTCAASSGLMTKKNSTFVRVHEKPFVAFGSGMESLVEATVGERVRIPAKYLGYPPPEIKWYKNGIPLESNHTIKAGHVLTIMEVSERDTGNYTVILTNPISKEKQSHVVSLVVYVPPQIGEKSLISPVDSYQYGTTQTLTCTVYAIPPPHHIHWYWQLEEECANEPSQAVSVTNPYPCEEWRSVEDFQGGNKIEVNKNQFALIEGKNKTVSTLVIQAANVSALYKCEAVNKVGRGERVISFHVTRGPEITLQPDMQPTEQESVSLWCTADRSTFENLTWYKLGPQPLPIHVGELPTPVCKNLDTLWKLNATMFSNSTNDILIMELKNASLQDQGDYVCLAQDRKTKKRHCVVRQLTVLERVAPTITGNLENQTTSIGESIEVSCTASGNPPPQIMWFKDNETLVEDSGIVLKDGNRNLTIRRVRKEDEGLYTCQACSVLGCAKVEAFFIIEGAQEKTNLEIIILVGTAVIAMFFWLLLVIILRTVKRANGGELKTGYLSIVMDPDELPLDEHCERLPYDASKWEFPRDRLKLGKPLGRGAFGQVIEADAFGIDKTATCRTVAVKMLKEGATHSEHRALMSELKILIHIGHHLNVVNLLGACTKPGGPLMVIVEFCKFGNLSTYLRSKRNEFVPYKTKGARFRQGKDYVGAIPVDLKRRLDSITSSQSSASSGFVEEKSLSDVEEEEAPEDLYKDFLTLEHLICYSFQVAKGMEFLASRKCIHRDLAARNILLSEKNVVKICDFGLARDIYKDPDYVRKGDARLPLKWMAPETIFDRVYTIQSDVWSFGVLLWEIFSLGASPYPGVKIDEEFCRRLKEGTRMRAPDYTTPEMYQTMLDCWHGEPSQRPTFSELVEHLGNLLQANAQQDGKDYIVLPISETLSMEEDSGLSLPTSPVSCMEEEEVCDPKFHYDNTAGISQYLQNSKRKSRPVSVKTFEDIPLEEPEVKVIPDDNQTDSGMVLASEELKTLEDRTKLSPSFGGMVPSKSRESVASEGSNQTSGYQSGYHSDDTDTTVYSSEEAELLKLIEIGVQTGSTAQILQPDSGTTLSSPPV
T1 sequence (P53779 whole entry): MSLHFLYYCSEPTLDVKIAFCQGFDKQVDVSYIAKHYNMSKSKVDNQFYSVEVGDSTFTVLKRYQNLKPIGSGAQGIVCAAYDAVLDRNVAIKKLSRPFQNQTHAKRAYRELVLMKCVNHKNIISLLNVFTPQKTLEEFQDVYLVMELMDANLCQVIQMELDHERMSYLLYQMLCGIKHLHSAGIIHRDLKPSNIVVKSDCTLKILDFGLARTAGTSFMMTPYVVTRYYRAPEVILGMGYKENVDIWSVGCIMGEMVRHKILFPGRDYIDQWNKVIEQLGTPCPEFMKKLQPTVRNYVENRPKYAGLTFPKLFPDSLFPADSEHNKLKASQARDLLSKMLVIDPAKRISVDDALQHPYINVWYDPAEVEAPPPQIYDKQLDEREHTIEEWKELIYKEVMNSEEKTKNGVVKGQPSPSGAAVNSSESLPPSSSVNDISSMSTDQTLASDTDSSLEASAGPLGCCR
T2 sequence (P10721 with tags, fused parts or gaps): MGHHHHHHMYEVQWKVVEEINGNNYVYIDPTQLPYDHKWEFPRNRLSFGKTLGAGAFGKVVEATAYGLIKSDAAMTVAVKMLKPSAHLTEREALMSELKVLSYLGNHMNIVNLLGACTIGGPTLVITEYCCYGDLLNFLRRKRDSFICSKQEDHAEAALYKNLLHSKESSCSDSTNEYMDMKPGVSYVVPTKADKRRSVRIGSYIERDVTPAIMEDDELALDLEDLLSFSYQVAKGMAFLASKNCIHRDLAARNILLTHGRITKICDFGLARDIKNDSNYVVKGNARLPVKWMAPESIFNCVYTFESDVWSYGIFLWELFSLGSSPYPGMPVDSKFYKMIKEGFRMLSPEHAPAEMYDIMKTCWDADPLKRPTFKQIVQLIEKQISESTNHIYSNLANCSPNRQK
T10 sequence (P15056 with tags, fused parts or gaps V600E): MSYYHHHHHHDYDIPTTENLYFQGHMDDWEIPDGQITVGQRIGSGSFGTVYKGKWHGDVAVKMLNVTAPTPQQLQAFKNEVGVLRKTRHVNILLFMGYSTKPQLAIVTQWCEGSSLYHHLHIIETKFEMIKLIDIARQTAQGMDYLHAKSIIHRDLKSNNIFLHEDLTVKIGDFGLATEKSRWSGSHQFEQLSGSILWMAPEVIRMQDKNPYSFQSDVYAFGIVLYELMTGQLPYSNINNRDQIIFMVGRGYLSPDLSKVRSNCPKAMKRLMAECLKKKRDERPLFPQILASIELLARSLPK
Chain of MAP4K4 (O95819 whole entry): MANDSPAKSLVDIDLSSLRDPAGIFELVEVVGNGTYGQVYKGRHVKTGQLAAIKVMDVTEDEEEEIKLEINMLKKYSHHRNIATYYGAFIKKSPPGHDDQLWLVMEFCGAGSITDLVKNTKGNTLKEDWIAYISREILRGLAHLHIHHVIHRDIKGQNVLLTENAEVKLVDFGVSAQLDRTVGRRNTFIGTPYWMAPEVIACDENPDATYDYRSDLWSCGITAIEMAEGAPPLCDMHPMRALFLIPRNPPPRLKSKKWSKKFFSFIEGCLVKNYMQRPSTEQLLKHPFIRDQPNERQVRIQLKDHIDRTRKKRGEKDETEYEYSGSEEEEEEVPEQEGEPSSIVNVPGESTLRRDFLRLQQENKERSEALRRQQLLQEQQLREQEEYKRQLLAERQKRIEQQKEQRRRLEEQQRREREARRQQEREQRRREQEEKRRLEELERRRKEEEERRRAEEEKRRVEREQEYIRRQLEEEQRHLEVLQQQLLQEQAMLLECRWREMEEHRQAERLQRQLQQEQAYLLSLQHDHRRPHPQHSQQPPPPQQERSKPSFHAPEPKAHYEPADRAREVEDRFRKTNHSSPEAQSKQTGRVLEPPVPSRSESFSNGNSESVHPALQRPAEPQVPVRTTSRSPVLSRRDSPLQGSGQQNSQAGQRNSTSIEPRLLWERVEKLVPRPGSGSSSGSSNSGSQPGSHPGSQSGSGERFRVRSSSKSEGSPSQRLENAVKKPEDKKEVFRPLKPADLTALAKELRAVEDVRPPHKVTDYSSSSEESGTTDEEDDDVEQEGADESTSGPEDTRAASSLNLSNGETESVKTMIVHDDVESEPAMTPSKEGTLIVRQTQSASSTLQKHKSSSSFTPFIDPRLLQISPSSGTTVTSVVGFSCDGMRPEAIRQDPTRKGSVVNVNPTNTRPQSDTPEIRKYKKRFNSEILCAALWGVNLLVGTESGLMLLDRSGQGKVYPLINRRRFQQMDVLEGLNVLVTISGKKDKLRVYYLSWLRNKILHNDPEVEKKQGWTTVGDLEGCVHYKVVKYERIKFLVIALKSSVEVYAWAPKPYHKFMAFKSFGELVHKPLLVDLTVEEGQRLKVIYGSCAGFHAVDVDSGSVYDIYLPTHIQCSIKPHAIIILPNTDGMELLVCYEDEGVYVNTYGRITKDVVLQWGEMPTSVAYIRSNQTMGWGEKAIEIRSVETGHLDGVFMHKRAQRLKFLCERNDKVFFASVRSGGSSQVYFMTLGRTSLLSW
T8 sequence (Q05397 411-686): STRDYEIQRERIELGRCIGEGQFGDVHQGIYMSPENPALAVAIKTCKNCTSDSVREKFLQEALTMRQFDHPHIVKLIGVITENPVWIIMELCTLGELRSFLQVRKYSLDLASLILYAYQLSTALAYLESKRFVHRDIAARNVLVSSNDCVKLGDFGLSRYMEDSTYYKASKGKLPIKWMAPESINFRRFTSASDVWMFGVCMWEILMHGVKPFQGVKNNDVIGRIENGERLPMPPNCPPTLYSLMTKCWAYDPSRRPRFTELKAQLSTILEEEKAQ
T7 sequence (P07947 whole entry): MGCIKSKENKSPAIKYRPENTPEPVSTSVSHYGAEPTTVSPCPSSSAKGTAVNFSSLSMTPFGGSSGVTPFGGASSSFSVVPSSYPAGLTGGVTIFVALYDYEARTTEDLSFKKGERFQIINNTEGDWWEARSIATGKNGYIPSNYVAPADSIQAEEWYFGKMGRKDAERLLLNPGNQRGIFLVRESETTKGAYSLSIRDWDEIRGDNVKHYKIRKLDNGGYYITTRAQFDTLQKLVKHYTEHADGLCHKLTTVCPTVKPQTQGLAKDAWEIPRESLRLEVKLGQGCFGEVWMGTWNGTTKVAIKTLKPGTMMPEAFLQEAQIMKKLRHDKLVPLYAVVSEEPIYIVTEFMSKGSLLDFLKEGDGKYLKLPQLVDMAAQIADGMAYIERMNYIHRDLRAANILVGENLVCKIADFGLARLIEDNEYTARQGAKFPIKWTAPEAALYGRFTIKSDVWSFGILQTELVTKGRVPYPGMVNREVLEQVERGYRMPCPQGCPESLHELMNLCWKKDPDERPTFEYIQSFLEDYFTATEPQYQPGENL

Turning to `O=C(c1cccc(F)c1)c1c[nH]c2ncc(-c3ccsc3)cc12` [Compound P-0378], the IC50 on Jnk3, on Kit, at Zap70 and on Ret was no more than 10 µM each time.
As for `COc1ccc(-c2c(C)[nH]c3ncccc23)cc1OC` [Compound P-0862], on MAP4K4, the IC50 is no more than 10 µM.
As for `O=C(O)/C=C/c1cccc(-c2cnc3[nH]cc(C(=O)c4ccc5nsnc5c4)c3c2)c1` [Compound P-1019], the IC50 on Zap70 and on Ret was no more than 10 µM throughout.
Take `NC(=O)c1ccc(-c2cnc3[nH]cc(C(=O)c4ccc5nsnc5c4)c3c2)cc1` [Compound P-1081]: the IC50 on Zap70 and at Ret was no more than 10 µM each time.
Turning to `CCOc1ccccc1-c1c[nH]c2ncccc12` [Compound P-0527], on MAP4K4, the IC50 is no more than 10 µM.
As for `Fc1cc(F)cc(-c2ccnc3[nH]ccc23)c1` [Compound P-0296], the IC50 on Kdr and at Zap70 was no more than 10 µM throughout.
Consider `CCCCc1ccc(S(=O)(=O)NCc2c[nH]c3ncccc23)cc1` [Compound P-1119], for which the IC50 on Zap70 and on Ret was no more than 10 µM in each case.
In the case of `O=C(c1ccccc1)c1c[nH]c2ncccc12` [Compound P-0402], the half-maximal inhibitory concentration (IC50) at MAP4K4 and on Kit was no more than 10 µM each time.
As to `NC(=O)c1ccc(-c2c(CN3CCOCC3)[nH]c3ncccc23)cc1` [Compound P-0695], at MAP4K4, the 50% inhibitory concentration (IC50) is no more than 10 µM.
Turning to `COc1cccc(C(=O)c2c[nH]c3ncc(-c4ccc(C(N)=O)cc4)cc23)c1` [Compound P-1005], the IC50 at Jnk3, at Zap70 and on Ret was no more than 10 µM in each case.
Turning to `COc1ccc(F)cc1Cc1c[nH]c2ncccc12` [Compound P-0348], the half-inhibitory concentration (IC50) at Zap70 and at Stk6 was no more than 10 µM each time.
`c1ccc(Oc2ccc(Cc3c[nH]c4ncccc34)cc2)cc1` [Compound P-0310]: the IC50 at Yes, on Fak, at B-Raf and at Zap70 was no more than 10 µM in each case.
For the compound `Clc1cccc(-c2c[nH]c3ncccc23)c1` [Compound P-0449], the IC50 at MAP4K4 was no more than 10 µM.
As for `Cc1cc(C(=O)c2c[nH]c3nccc(-c4cccc(/C=C/C(=O)O)c4)c23)no1` [Compound P-1000], the IC50 at B-Raf V600E, at Zap70 and on Ret was no more than 10 µM throughout.
In the case of `CN1CCN(Cc2ccc(C(=O)Nc3ccc(Cc4c[nH]c5ncccc45)cc3)cc2)CC1` [Compound P-0795], the half-inhibitory concentration (IC50) at Fak, at Zap70 and at Ret was no more than 10 µM throughout.
Consider `Fc1ccccc1-c1c[nH]c2ncccc12` [Compound P-0195], for which the IC50 at Kdr, at Kit and at Zap70 was no more than 10 µM each time.
For the compound `c1cnc2ccc(Nc3ccnc4[nH]ccc34)cc2c1` [Compound P-1042], the 50% inhibitory concentration (IC50) on MAP4K4 is no more than 10 µM.
For the compound `NC(=O)c1ccc(-c2cnc3[nH]cc(C(=O)c4ccc(Cl)cc4)c3c2)cc1` [Compound P-1073], the IC50 at Zap70 and at Ret was no more than 10 µM in each case.
For `COC(c1ccc(Br)cc1)c1c[nH]c2ncc(-c3cccc(S(C)(=O)=O)c3)cc12` (stereo not shown) [Compound P-0434], the half-inhibitory concentration (IC50) at B-Raf V600E, on Zap70 and on Ret was no more than 10 µM each time.
Turning to `CC(C)c1ccc(Cc2c[nH]c3ncccc23)cn1` [Compound P-0379], the IC50 on Kdr, at FGFR1 and on Zap70 was no more than 10 µM each time.
For `Fc1ccc(Cc2c[nH]c3ncccc23)cc1` [Compound P-0220], the IC50 on MAP4K4 and at FGFR1 was no more than 10 µM each time.
On to `O=C(c1cccc(Cl)c1Cl)c1c[nH]c2ncc(-c3ccsc3)cc12` [Compound P-0698], for which the half-inhibitory concentration (IC50) on B-Raf V600E, on Jnk3, at FGFR1, on Zap70 and on Ret was no more than 10 µM each time.
`CS(=O)(=O)Nc1cccc(-c2cnc3[nH]cc(C(=O)c4ccc5nsnc5c4)c3c2)c1` [Compound P-1089]: the IC50 on Zap70 and at Ret was no more than 10 µM each time.
`Cc1[nH]c2ncccc2c1-c1ccccc1` [Compound P-0488]: the concentration for half-maximal inhibition (IC50) at MAP4K4 is no more than 10 µM.
Regarding `O=C(c1cccc(F)c1)c1c[nH]c2ncc(Br)cc12` [Compound P-0865], the IC50 at Kit, on FGFR1, on Zap70 and at Ret was no more than 10 µM in each case.
With `O=C(c1cccc(O)c1)c1ccc(-c2cnc3[nH]ccc3c2)s1` [Compound P-0755], the IC50 on Jnk3, on Kit and on Zap70 was no more than 10 µM each time.
With `Cc1[nH]c2ncccc2c1-c1ccncc1` [Compound P-0537], the IC50 at MAP4K4 was no more than 10 µM.
As to `Cc1cc(C(=O)c2c[nH]c3ncccc23)n(C)n1` [Compound P-0357], on MAP4K4, the IC50 was no more than 10 µM.
On the same count and under the same terms, for `Cc1[nH]c2ncccc2c1-c1ccc(-c2ccccc2)cc1` [Compound P-0601] the value was no more than 10 µM; for `O=C(c1cccnc1)c1c[nH]c2ncccc12` [Compound P-0518], no more than 10 µM.
Consider `COc1cccc(C(=O)c2c[nH]c3ncc(-c4cccnc4)cc23)c1` [Compound P-0218], for which the half-inhibitory concentration (IC50) on Jnk3 and at Zap70 was no more than 10 µM each time.
As for `c1ccc(Cc2c[nH]c3ncccc23)cc1` [Compound P-0256], at MAP4K4, the IC50 is no more than 10 µM.
Turning to `Cc1[nH]c2ncccc2c1-c1cccs1` [Compound P-0249], the IC50 at Zap70 and at Stk6 was no more than 10 µM throughout.
With `O=S(=O)(NCc1c[nH]c2ncccc12)c1ccc(-c2cccc(CO)c2)cc1` [Compound P-0193], the IC50 on Zap70 and at Stk6 was no more than 10 µM each time.
